Literature values as cited in article PMC10892719 (Pharmaceutics, 2024).

Target: T1, Aβ1-42 (Homo sapiens, UniProt P05067)
T1 construct: purchased Genecust, Boynes, France
Conditions: thioflavin T fluorescence method; cited from earlier work

T1 sequence (P05067 672-713 limits assumed): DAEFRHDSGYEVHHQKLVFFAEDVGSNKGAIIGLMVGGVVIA

COc1cc(/C=C/C(=O)CC(=O)/C=C/c2ccc(O)c(OC)c2)ccc1O [Curcumin, curcumin]
Aβ42 Self-Aggreg. Inhib: 65.7%
